{"source": "paper PMC9838834", "about": "“Improvement of Antialveolar echinococcosis efficacy of novel Albendazole-Bile acids Derivatives with Enhanced Oral Bioavailability” (PLOS Neglected Tropical Diseases, 2023)", "key": {"protoscolex (PSCs) [1]": {"system": "protoscolex (PSCs)", "assay": "Protoscolex microstructure by optical microscope and SEM", "type": "cell-based, E. multilocularis", "conditions": "5 days after treatment", "from_the_text": "(§1) Protoscoleces (PSCs) from E. multilocularis were collected aseptically from alveolar echinococcosis obtained from the abdominal cavity of gerbils in Qinghai Research Key Laboratory for Echinococcosis, China. The specific operation steps were as follows: (1) dissect the successfully preserved Echinococcus protoscoleces gerbil model, isolate cysts and wash the residual liver tissue and blood with sterile Penicillin-Streptomycin solution (penicillin (1500 U/ mL) + streptomycin (1000 U/ mL)). (2) Place the clean cysts in sterile glassware, cut them into a slurry, filter the original head section with sterile gauze, and rinse them with Penicillin-Streptomycin solution 3 times. (3) Slightly rotate and shake the filtrate, absorb the suspended connective tissue, impurities, inactivated PSCs, and excess Penicillin-Streptomycin solution in the upper layer, repeat several times and finally concentrate the pure PSCs into the test tube. Viability was assessed by muscular movement (evaluated under an optical microscope), the motility of flame cells, and the exclusion test with methylene blue. The PSCs were incubated in an RPMI 1640 medium containing 0.20 mg/mL liver homogenous serous, 100 U/mL penicillin, 100 μg/mL streptomycin and 10% calf serum at 37°C in a 5% CO2 atmosphere at a concentration of (1000–2000) PSCs/mL.\n(§2) The PSCs were divided into blank control groups (Groups 1 and 2), positive control groups (Groups 3 and 4), and experimental groups (Groups 5 to 7). Group 1 was RPMI-1640 medium with 0.20 mg/mL liver homogenate; Group 2 was 0.2% DMSO medium with 0.2% DMSO; Group 3 was RPMI-1640 medium with 0.20 mg/mL liver homogenate and 0.2% DMSO, containing 10 μg/mL Albendazole; Group 4 was RPMI-1640 medium with 0.20 mg/mL liver homogenate and 0.2% DMSO, containing 10 μg/mL albendazole sulfoxide; Groups 5–7 were RPMI-1640 medium with 0.20 mg/mL liver homogenate and 0.2% DMSO, containing 13.45, 26.9 and 53.8 μg/mL ABZ-BA, with effective ABZ concentrations of 5, 10 and 20 μg/mL, respectively. The culture medium and drug were changed every 3 days for one week. PSCs samples (10 μL) were collected every day and stained with 0.4% trypan blue staining solution, observed under an inverted microscope, and photographed to record PSC mortality.\nFor ultrastructural studies, 200 μL PSCs were taken from each group 5 days after treatment and fixed with 4% glutaraldehyde in sodium cacodylate buffer at 4°C for 72 hours. Samples were dehydrated by continuous incubation in increasing concentrations of ethanol (50–100%), and ethanol was removed by supercritical extraction. They were then sputter-coated with gold (100 Å thick) and examined on an FEI Quanta 200 scanning electron microscope operating at 20 kV."}, "[2]": {"assay": "Systemic pharmacokinetics in SD rats (UHPLC-MS)", "type": "in vivo, Sprague-Dawley (SD) rats", "conditions": "for Cmax: po, 25 mg/kg", "method": "A Dionex Ultimate 3000 RSLC system (Thermofisher) combined with an Accucore aQ C18 column (150 mm×2.1 mm, 2.6 μm, Thermo fisher) was used in the sample separation process. The separation speed was set at […] for all gradients. 1 μL of injection volume and a constant temperature of (25 ± 1°C were set for the column. The eluents were A, water with 0.1% formic acid (v/v) and B, methanol; the gradient program was as follows: 0–6 min, 8–40% B; 6–8 min, 40–100% B; 8–10 min, 100% B; 10–11 min, 100–8% B; 11–13 min, 8% B.\nHeated electro-spray ionization (HE-SI) was paired with a Q-Orbitrap MS in the MS analysis. The flow rate of auxiliary, sheath and sweep gas was set at 35, 10, and 1 (arbitrary unit), respectively. A full MS-ddMS^2 mode was used to perform the analysis. The damping gas in the C-trap and nitrogen was used to stabilize the spraying. Temperatures of 350°C and 320°C were set and kept for the auxiliary gas heater and capillary. Under negative mode, 3.0 kV was adopted for the spray voltage, 60 V was used for the S-lens RF level, 50 ms was used for the maximum injection time, and 3.0 ^e6 was set as the automatic gain control target. Full MS-ddMS^2 scan ranged from 150.0000 to 800.0000 m/z. Precise molecular weight […] was used for qualitative analysis, the corresponding peak area was used for quantitative analysis, and MS^2 fragments were used for further qualitative analysis.\nA cross-over design was employed with male SD rats (n = 7) to evaluate in vivo pharmacokinetics. The rats were subjected to fasting for one night before each administration and were fed 4 hours after administration. ABZ was administered by gavage (25 mg/kg). Blood was collected under isoflurane anesthesia at a flow rate of 2.0 mL/min. At 0.25, 0.5, 1, 2, 2.5, 3, 4, 6, 8, 12, and 24 hours after administration, 200–500 μL blood was collected from the orbital venous plexus and centrifuged at 13000 rpm for 5 min. The upper plasma was stored at—80°C for testing.\nPlasma samples were thawed at room temperature, and 100 μL was added to an equal volume of mass spectrometry grade methanol, vortexed for 1 min, and centrifuged again at 13000 rpm for 5 min. 100 μL of the supernatant were added to 100 μL of 200 ng/mL mebendazole IS solution, vortexed for 1 min, and centrifuged again at 13000 rpm for 5 min. The resulting sample was injected by UHPLC-HR-ESI-MS with an injection volume of 1 μL. The pharmacokinetic study of SD rats was performed according to the standards recommended by the \"Guidelines for the Care and Use of Laboratory Animals\" (Animal Laboratory Resources Institute, 1995) and was approved by the Institutional Animal Care and Use Committee of Qinghai University."}, "[3]": {"assay": "Wide-angle x-ray diffraction (WAXRD) of powders", "type": "physicochemical", "conditions": "powder, 2θ 5 to 35°", "method": "The ABZ and ABZ-BA powders were characterized by an X’Pert3 Powder X-ray diffractometer (PANalytical, Inc. U.K.), a voltage of 40 kV, and a current of 40 mA. The samples were scanned from 2θ = 5 to 35° at a scanning speed of 1°/min, and the step size was at 0.01° 2θ [10]."}, "[4]": {"assay": "Water solubility, stated in response to reviewers", "type": "physicochemical", "from_the_text": "ABZ and ABZ-BA are both water-insoluble, so we suspended the drug in a 0.5% sodium carboxymethyl cellulose (CMC-Na) aqueous solution. This method of administration has been widely used for the oral administration of poorly soluble drugs. This method has been adopted by our research group in previous studies, and many studies have been published that use this method, including the following: […]"}, "protoscolex (PSCs) [5]": {"system": "protoscolex (PSCs)", "assay": "Detection of protoscolex mortality / survival rate in vitro (trypan blue)", "type": "cell-based, E. multilocularis", "conditions": "for inhibitory effect on PSC survival rate: 7 days, ABZ 10 μg/mL, ABZ-SO 10 μg/mL, ABZ-BA 13.45, 26.9, 53.8 μg/mL, liver homogenate + 0.2% DMSO, n = 3", "from_the_text": "as §1, §2"}, "alveolar echinococcosis": {"system": "alveolar echinococcosis", "set-up": "method as in PMID 18938096", "conditions": "AE patients; cited from earlier work"}}, "note": "“Also recorded” adds a separate entry of the source. Like-named read-outs stand apart in the source and are kept apart here.", "data": [{"smiles": "CCCSc1ccc2[nH]c(NC(=O)NCCCCOC(=O)CCC(C)C3CCC4C5C(O)CC6CC(O)CCC6(C)C5CC(O)C34C)nc2c1", "note": "(stereo not shown) [ABZ-BA]", "values": [{"measurement": "PSC morphology, lowest concentration", "setting": "protoscolex (PSCs) [1]; ABZ-BA 13.45 μg/mL", "result": "obvious shrinkage at the lowest concentration, but the suckers were still clearly visible"}, {"measurement": "PSC morphology, intermediate and high concentration", "setting": "protoscolex (PSCs) [1]; ABZ-BA 26.9 and 53.8 μg/mL", "result": "strikingly distinct from their original form, appearing in a disc state after death"}, {"measurement": "detectability in blood after oral administration for 8 hours", "setting": "[2]; SD rats, oral 25 mg/kg", "result": "easily detected"}, {"measurement": "pharmacokinetic behavior compared with Albenda", "setting": "[2]; rat, in vivo", "result": "superior to that of Albenda"}, {"measurement": "physical state (WAXRD)", "setting": "[3]", "result": "amorphous"}, {"measurement": "water solubility", "setting": "[4]", "result": "water-insoluble"}, {"measurement": "inhibitory effect on PSC survival rate", "setting": "protoscolex (PSCs) [5]", "result": "time and concentration-dependent inhibitory effects"}, {"measurement": "inhibitory effect / killing ability on PSCs compared with ABZ", "setting": "protoscolex (PSCs) [5]; in vitro", "result": "identical to that of ABZ; also recorded: the same as that of ABZ"}]}, {"smiles": "CCCSc1ccc2nc(NC(=O)OC)[nH]c2c1", "note": "[ABZ, Albendazole]", "values": [{"measurement": "PSC morphology under the SEM", "setting": "protoscolex (PSCs) [1]; 10 μg/mL", "result": "elongated and curled up"}, {"measurement": "PSC morphology under the optical microscope (OM)", "setting": "protoscolex (PSCs) [1]; 10 μg/mL", "result": "became vacuolar and transparent"}, {"measurement": "mortality of PSCs", "setting": "protoscolex (PSCs) [1]; 10 μg/mL, vs blank groups", "result": "significantly higher than in the blank groups"}, {"measurement": "clinical improvement after administration", "setting": "alveolar echinococcosis", "result": "two-thirds of AE patients show moderate improvement"}, {"measurement": "Cmax", "setting": "[2]; male, Sprague-Dawley, rat, in vivo, SD rats, oral 25mg/kg of API", "result": "76.4 ± 7.62", "unit": "ng/mL"}, {"measurement": "Cmax", "setting": "[2]; male, Sprague-Dawley, rat, in vivo, SD rats, oral 25 mg/kg, n = 7, Table 2", "result": "8.44 ± 3.6", "unit": "ng/mL"}, {"measurement": "Tmax", "setting": "[2]; male, Sprague-Dawley, rat, in vivo, SD rats, oral 25 mg/kg, n = 7", "result": "10.9 ± 1.95", "unit": "h"}, {"measurement": "AUC(0-inf)", "setting": "[2]; male, Sprague-Dawley, rat, in vivo, SD rats, oral 25 mg/kg, n = 7, Abz = ABZ content of ABZ-BA", "result": "101 ± 45.9", "unit": "ng·h/mL"}, {"measurement": "AUC(0-t)", "setting": "[2]; male, Sprague-Dawley, rat, in vivo, SD rats, oral 25 mg/kg, n = 7, Abz = ABZ content of ABZ-BA, read-out: AUC(0–24)", "result": "91.5 ± 42.7", "unit": "ng·h/mL"}, {"measurement": "MRT inf", "setting": "[2]; male, Sprague-Dawley, rat, in vivo, SD rats, oral 25 mg/kg, n = 7, read-out: MRT(0-∞)", "result": "13.9 ± 3.98", "unit": "h"}, {"measurement": "MRT last", "setting": "[2]; male, Sprague-Dawley, rat, in vivo, SD rats, oral 25 mg/kg, n = 7, read-out: MRT(0–24)", "result": "11.6 ± 0.91", "unit": "h"}, {"measurement": "Vd/F", "setting": "[2]; male, Sprague-Dawley, rat, in vivo, SD rats, oral 25 mg/kg, n = 7, read-out: Vz/F", "result": "1990 ± 1620", "unit": "L/kg"}, {"measurement": "half-life", "setting": "[2]; male, Sprague-Dawley, rat, in vivo, SD rats, oral 25 mg/kg, n = 7, read-out: t1/2z (converted)", "result": "5.51 ± 4.27", "unit": "h"}, {"measurement": "concentration at 8 h", "setting": "[2]; male, Sprague-Dawley, rat, in vivo, SD rats, oral 25mg/kg, lower limit of detection, read-out: blood concentration after oral administration for 8 hours", "result": "< 1", "unit": "ng/mL"}, {"measurement": "physical state (WAXRD)", "setting": "[3]", "result": "crystalline"}, {"measurement": "water solubility", "setting": "[4]; reason for dosing as suspension in 0.5% CMC-Na", "result": "water-insoluble"}, {"measurement": "inhibitory effect on PSC survival rate", "setting": "protoscolex (PSCs) [5]", "result": "time and concentration-dependent inhibitory effects"}]}]}
